Patent US20200109163A1, “CARBONATED BEVERAGE AND METHOD FOR CARBONATION ENHANCEMENT” (INTERNATIONAL FLAVORS & FRAGRANCES INC., priority 2018, published 2020)

What was measured:
Type in all cases: in vivo
[1] = Carbonation effect of structural analogs in lime-flavored carbonated water, trained panel
Protocol: Selected structural analogs of sitosterol were tested for their ability to enhance the carbonation effect of a carbonated beverage. The analogs were used in amounts of 400 ppb and 200 ppb to 5 ppm. The sensory evaluation was carried by a trained panel that tasted each of the compounds in a lime-flavored carbonated water (Vintage seltzer water). The intensity of carbonation effect was rated and compared to other samples (Table 3)

[2] = Flavor of β-sitosterol solutions in water; conditions: solutions 2.5 to 600 ppb in water
[3] = Alcohol impression in alcohol-free beer, panel comparison with alcohol solutions; conditions: 25 ppb in Brahma 0.0% alcohol-free beer
Protocol: Alcohol solutions at 1% ABV, 2% ABV, 2.5% ABV, 3% ABV and 5% ABV were prepared by adding varying amounts of ethanol in Brahma 0.0% alcohol-free beer (Anheuser-Busch InBev);
A β-sitosterol solution (prepared in Example 1) was added in Brahma 0.0% alcohol-free beer to yield a final concentration of 25 ppb. The alcohol impression of the obtained sample was evaluated and compared by a panel with alcohol solutions at 1% ABV, 2% ABV, 2.5% ABV, 3% ABV and 5% ABV (prepared in Example 1). β-Sitosterol (25 ppb) provided an equal level of alcohol impression as the alcohol solution at 2.5% ABV. Accordingly, β-Sitosterol provided alcohol sensation in alcohol-free beverages.

[4] = Alcohol sensation intensity in alcohol solution at 6% ABV, panel, scale 0 to 10; conditions: 100 ppb in solution of 6% ABV; scale 0 to 10 (0=none, 4=medium, 7=high, 10=extremely high); control 4.38 ± 0.32
Protocol: Alcohol solution at 6% ABV was prepared by adding ethanol in water; and
A β-sitosterol solution (prepared in Example 1) was added to the alcohol solution at 6% ABV (prepared in Example 1) to yield a final concentration of 100 ppb. The alcohol sensation of the obtained sample was evaluated and compared by a panel with the alcohol solution at 6% ABV using an intensity scale of 0 to 10, where 0=none, 4=medium, 7=high and 10=extremely high. The intensity of alcohol sensation was rated. Mean (“Alcohol Intensity”) and standard error of the mean (“SE”, ±) were obtained (Table 1).

[5] = Alcohol sensation with varying amounts of β-sitosterol in alcohol solution at 17.5% ABV
Protocol: (§1) Alcohol solutions with ABV ranging from 8.75% to […] were prepared by diluting CAPTAIN MORGAN® Original Spiced Rum (35% ABV) (Diageo North America Inc.) in varying amounts of water.
A series of β-sitosterol solutions (prepared in Example 1) were added to the alcohol solution at 17.5% ABV (prepared in Example 1) to yield final concentrations of β-sitosterol ranging from 3 to 500 ppb. The alcohol sensation of the obtained samples containing different amounts of β-sitosterol was evaluated.

[6] = Alcohol sensation with varying amounts of alcohol, panel comparison with solutions at higher ABV
Protocol: as §1
A β-sitosterol solution (prepared in Example 1) was added to alcohol solutions at 8.75% ABV, 17.5% ABV and 21.75% ABV (prepared in Example 1), respectively, to yield a final concentration of 25 ppb β-sitosterol. The alcohol sensation of the obtained samples was evaluated and compared by a panel with alcohol solutions at higher levels of ABV.

[7] = Carbonation effect intensity in carbonated water (7.2 g/L CO2), panel, scale 0 to 10; conditions: 2.5 ppt in solution of 7.2 g/L CO2; scale 0 to 10 (0=none, 4=medium, 7=high, 10=extremely high); control 4.88 ± 2.53
Protocol: (§2) Carbonated water containing carbon dioxide at 6.0, 7.2 and 8.0 g/L, respectively, were also prepared.
A β-sitosterol solution (prepared in Example 1) was added to the carbonated water (7.2 g/L CO2) (prepared in Example 1) to yield a final concentration of 2.5 ppt. The carbonation effect of the obtained sample was evaluated and compared by a panel with the carbonated water using an intensity scale of 0 to 10, where 0=none, 4=medium, 7=high and 10=extremely high. The intensity of carbonation effect was rated. Mean (“Carbonation Intensity”) and standard error of the mean (“SE”, ±) were obtained (Table 2).

[8] = Carbonation sensation with varying amounts of β-sitosterol in carbonated water (7.2 g/L CO2)
Protocol: as §2
A series of β-sitosterol solutions (prepared in Example 1) were added to carbonated water (7.2 g/L CO2) (prepared in Example 1) to yield final concentrations ranging from 0.1 ppt to 50 ppt. The carbonation sensation of the obtained samples containing different amounts of β-sitosterol was evaluated.

[9] = Carbonation sensation with varying amounts of carbonation; conditions: 2.5 ppt in carbonated water containing 6.0, 7.2 or 8.0 g/L CO2, all samples
Protocol: as §2
A β-sitosterol solution (prepared in Example 1) was added to carbonated water containing 6.0, 7.2 or 8.0 g/L CO2 (prepared in Example 1), respectively, to yield a final concentration of 2.5 ppt β-sitosterol. The carbonation sensation of the obtained samples was evaluated.

[10] = 200 ppb in lime-flavored carbonated water (Vintage seltzer water)
[11] = 200 ppb-5 ppm in lime-flavored carbonated water (Vintage seltzer water)

Compound: CC(C)(O)[C@@H]1CC[C@](C)([C@H]2[C@@H](O)C[C@@]3(C)[C@@H]4C[C@H](O[C@@H]5O[C@H](CO)[C@@H](O)[C@H](O)[C@H]5O)[C@H]5C(C)(C)[C@@H](O[C@@H]6OC[C@@H](O)[C@H](O)[C@H]6O)CC[C@@]56C[C@@]46CC[C@]23C)O1 [Astragaloside IV]
- Carbonation Effect [1, 10]: 200 ppb: More impactful, long lasting, very

Compound: C=C(C)[C@@H]1CC[C@]2(CO)CC[C@]3(C)[C@H](CC[C@@H]4[C@@]5(C)CC[C@H](O)C(C)(C)[C@@H]5CC[C@]43C)[C@@H]12 [Betulin]
- Carbonation Effect [1, 10]: 200 ppb: Long lasting popping, sour, works with

Compound: C[C@H](CCC(=O)O)[C@H]1CC[C@H]2[C@@H]3[C@H](O)C[C@@H]4C[C@H](O)CC[C@]4(C)[C@H]3CC[C@]12C [Chenodeoxycholic acid]
- Carbonation Effect [1, 11]: 200 ppb-5 ppm: Adds more violent upfront

Compound: CC(C)CCC[C@@H](C)[C@H]1CC[C@H]2[C@@H]3CC=C4C[C@@H](O)CC[C@]4(C)[C@H]3CC[C@]12C [Cholesterol]
- Carbonation Effect [1, 11]: 200 ppb-5 ppm: Very similar to Deoxycholic

Compound: C[C@H](CCC(=O)O)[C@H]1CC[C@H]2[C@@H]3[C@H](O)C[C@@H]4C[C@H](O)CC[C@]4(C)[C@H]3C[C@H](O)[C@]12C [Cholic acid]
- Carbonation Effect [1, 10]: 200 ppb: More tingly bubbles on tongue, linger,
- Carbonation Effect ([1]; 400 ppb in lime-flavored carbonated water (Vintage seltzer water)): 400 ppb: Very foamy, foam builds, lingering

Compound: C[C@@H]1CC[C@@]2(OC1)O[C@H]1C[C@H]3[C@@H]4CC=C5C[C@@H](O)CC[C@]5(C)[C@H]4CC[C@]3(C)[C@H]1[C@@H]2C [Diosgenin]
- Carbonation Effect [1, 11]: 200 ppb-5 ppm: Not much effect on carbonation,

Compound: C[C@H](CCC(=O)NCC(=O)O)[C@H]1CC[C@H]2[C@@H]3[C@H](O)C[C@@H]4C[C@H](O)CC[C@]4(C)[C@H]3C[C@H](O)[C@]12C [Glycocholic acid hydrate]
- Carbonation Effect [1, 10]: 200 ppb: Longer lasting bubbles than control,

Compound: C[C@H](CCC(=O)O)[C@H]1CC[C@H]2[C@@H]3C[C@H](O)[C@@H]4C[C@H](O)CC[C@]4(C)[C@H]3CC[C@]12C [Hyodeoxycholic acid]
- Carbonation Effect [1, 10]: 200 ppb: Very foamy, fast bubbles upfront,

Compound: C[C@H](CCC(=O)NCCS(=O)(=O)[O-])[C@H]1CC[C@H]2[C@@H]3[C@@H](O)C[C@@H]4C[C@H](O)CC[C@]4(C)[C@H]3CC[C@]12C.[Na+] [Sodium tauroursodeoxycholate]
- Carbonation Effect [1, 10]: 200 ppb: Very impactful, numbing, slightly more

Compound: CC[C@H](/C=C/[C@@H](C)[C@H]1CC[C@H]2[C@@H]3CC=C4C[C@@H](O)CC[C@]4(C)[C@H]3CC[C@]12C)C(C)C [Stigmasterol]
- Carbonation Effect [1, 11]: 200 pb-5 ppm: 5 ppm is a good level, adds more

Compound: CC[C@H](CC[C@@H](C)[C@H]1CC[C@H]2[C@@H]3CC=C4C[C@@H](O[C@@H]5O[C@H](CO)[C@@H](O)[C@H](O)[C@H]5O)CC[C@]4(C)[C@H]3CC[C@]12C)C(C)C [β-Sitosterol β-D-glucoside, Daucosterol, β-Sitosterol β-D-glucoside]
- Carbonation Effect [1, 11]: 200 ppb-5 ppm: Slight tingly tip of tongue,

Compound: CC[C@H](CC[C@@H](C)[C@H]1CC[C@H]2[C@@H]3CC=C4C[C@@H](O)CC[C@]4(C)[C@H]3CC[C@]12C)C(C)C [β-sitosterol, (3S,8S,9S,10R,13R,14S,17R)-17-((1R,4R)-4-ethyl-1,5-dimethyl-hexyl)-10,13-dimethyl-2,3,4,7,8,9,10,11,12,13,14,15,16,17-tetradecahydro-1H-cyclopenta[a]phenanthren-3-ol]
- Flavor of the compound itself [2]: no noticeable flavor itself
- Alcohol impression, equal level as alcohol solution at [3]: 2.5 % ABV
- Mean Alcohol Intensity ± SE [4]: 7.21 ± 0.27
- Alcohol sensation ([5]; 3 ppb in alcohol solution at 17.5% ABV): slight but noticeable increase in alcohol sensation
- Enhancement of alcohol sensation ([5]; 200 ppb in alcohol solution at 17.5% ABV): reached a stable plateau
- Alcohol sensation ([5]; higher concentrations (above 3 ppb, up to 500 ppb) in alcohol solution at 17.5% ABV): clear increase in alcohol intensity
- Alcohol sensation at the level of an alcohol solution at ([6]; 25 ppb in alcohol solution at 8.75% ABV): 10 % ABV
- Alcohol sensation at the level of an alcohol solution at ([6]; 25 ppb in alcohol solution at 17.5% ABV): 22.5 % ABV
- Alcohol sensation at the level of an alcohol solution at ([6]; 25 ppb in alcohol solution at 21.75% ABV): 35 % ABV
- Mean Carbonation Intensity ± SE [7]: 7.19 ± 1.73
- Carbonation perception ([8]; 0.1 ppt in carbonated water (7.2 g/L CO2)): slight increase in carbonation perception
- Carbonation perception ([8]; 2.5 ppt in carbonated water (7.2 g/L CO2)): clear increase in carbonation perception
- Enhancement of carbonation effect ([8]; 5 ppt or higher in carbonated water (7.2 g/L CO2)): reached a stable plateau
- Carbonation sensation [9]: provided enhancement of carbonation sensation
